From the supplement of paper PMC10883282
± gives the standard deviation of the averaged measurements.

System: G401
Test: relative viability vs DMSO control (72 h) (fraction); higher = more viable cells
How it was run: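 Plates held 72 h at 37 °C and 5% CO2 contained sarcoma cell lines seeded in 384-well format to reach 80–90% confluence, plus 2.5 µl of serially diluted compound added after 24 h. Source plate concentrations ran from 10 mM to 0.0002 mM, with 0.1% DMSO as vehicle and a 5 µM positive control. Percent growth from ATPLite readings, averaged over up to triplicate wells, gave relative viability. Values were rescaled with 1 as full and 0 as none.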

SMILES | relative viability (0.00017 µM) | relative viability (0.00051 µM) | relative viability (0.00152 µM) | relative viability (0.00457 µM) | relative viability (0.01372 µM) | relative viability (0.04115 µM) | relative viability (0.1235 µM) | relative viability (0.3704 µM) | relative viability (1.111 µM) | relative viability (3.333 µM) | relative viability (10 µM)
COc1cc2/c(=N/c3ccc(Br)cc3F)nc[nH]c2cc1OCC1CCN(C)CC1 [Vandetanib] | 0.983 ± 0.019 | 0.98623 ± 0.00074 | 0.989 ± 0.019 | 0.99 ± 0.028 | 0.993 ± 0.025 | 0.968 ± 0.025 | 0.971 ± 0.015 | 0.988 ± 0.033 | 0.87 ± 0.013 | 0.736 ± 0.0092 | 0.0218 ± 0.0004
CCc1cc2c(cc1N1CCC(N3CCOCC3)CC1)C(C)(C)c1[nH]c3cc(C#N)ccc3c1C2=O [Alectinib] | 0.947 ± 0.037 | 0.983 ± 0.023 | 0.977 ± 0.028 | 0.991 ± 0.037 | 0.981 ± 0.026 | 0.954 ± 0.029 | 1.01 ± 0.031 | 1.01 ± 0.056 | 1.03 ± 0.057 | 0.991 ± 0.039 | 0.894 ± 0.037
Cc1nc(-c2cn3c(n2)-c2ccc(-c4cnn(C(C)(C)C(N)=O)c4)cc2OCC3)n(C(C)C)n1 [Taselisib] | 0.995 ± 0.022 | 0.968 ± 0.045 | 0.969 ± 0.032 | 0.923 ± 0.011 | 0.866 ± 0.019 | 0.7976 ± 0.0064 | 0.68 ± 0.03 | 0.592 ± 0.027 | 0.499 ± 0.021 | 0.439 ± 0.019 | 0.347 ± 0.018
O=C(Cc1ccc(-c2ccc(OCCN3CCOCC3)cc2)cn1)NCc1ccccc1 [KX2-391] | 1.05 ± 0.047 | 1.05 ± 0.025 | 1.02 ± 0.033 | 1.05 ± 0.036 | 1.022 ± 0.0094 | 0.944 ± 0.027 | 0.555 ± 0.019 | 0.446 ± 0.013 | 0.421 ± 0.013 | 0.38 ± 0.014 | 0.368 ± 0.0095
